{
  "source": "ChEMBL document CHEMBL1137809",
  "about": "“Antifungal activity of benzoic acid derivatives from Piper lanceaefolium” (2002)",
  "key": {"[1]": {"test_system": "Candida albicans", "assay": "Antifungal activity against Candida albicans after 24 hrs by broth dilution assay", "format": "functional"}, "[2]": {"test_system": "Cladosporium cucumerinum", "assay": "Antifungal activity against Cladosporium cucumerinum at 5 ug by bioautographic TLC test", "format": "functional, organism-based"}},
  "note": "Active and inactive are the calls of the source. The calls are words filed in the database; no cut-off is given here.",
  "data": [
    {"smiles": "CC(C)=CC(=O)c1cc(C(=O)O)ccc1O", "values": [
      {"measurement": "Activity", "setting": "[1]", "result": "inactive"},
      {"measurement": "Activity", "setting": "[2]", "result": "inactive"}
    ]},
    {"smiles": "CC(C)=CC(=O)c1cc(C(=O)O)cc(O)c1O", "values": [
      {"measurement": "Activity", "setting": "[1]", "result": "inactive"}
    ]},
    {"smiles": "CC1(C)CC(=O)c2cc(C(=O)O)cc(O)c2O1", "values": [
      {"measurement": "Activity", "setting": "[1]", "result": "inactive"}
    ]},
    {"smiles": "COC(=O)c1cc(O)c2c(c1)C(=O)CC(C)(C)O2", "values": [
      {"measurement": "Activity", "setting": "[1]", "result": "inactive"}
    ]},
    {"smiles": "COC(=O)c1cc(O)c(O)c(C(=O)C=C(C)C)c1", "note": "[LANCEAEFOLIC ACID METHYL ESTER]", "values": [
      {"measurement": "MIC", "setting": "[1]", "result": 100, "unit": "µg/mL"}
    ]}
  ]
}
